The structures appear in SMILES notation. Entries after “also recorded” stand apart in the source; their conditions may differ.

The subject of assay [1] is IL-10, IL-6, MIP-2, IL-12. Put plainly: Cytokine levels (ELISA) in plasma and peritoneal lavage fluid after CLP. The class given is in vivo, mouse. As to the method: The effect of pharmacological inactivation of A2A receptors in mice subjected to CLP was evaluated using CD-1 mice in a similar fashion to that described for the A2A receptor KO or WT mice. In this set of experiments, the mice were injected immediately before or 2 hours after the operation and every 12 hours thereafter with 4-(2-[7-amino-2-(2-furyl[1,2,4]-triazolo[2,3-a[1,3,5]triazin-5-yl-aminoethyl)phenol (“ZM241385”) (15 mg/kg, s.c.) or its vehicle (DMSO). Blood samples were obtained aseptically by cardiac puncture using heparinized syringes after opening the chest and placed on ice into heparinized Eppendorf tubes until further processing for hematological and bacteriological analysis. Aliquots of whole blood were analyzed for hematology by flow cytometry (CELL-DYN 3200 System, Abbott Laboratories) in a centralized facility. After serial dilutions for bacteriological analysis were made (see below), the blood was centrifuged at 2000×g for ten minutes and the recovered plasma stored at −70° C. until further use. For peritoneal lavage, the abdominal skin was cleansed with 70% ethanol and the abdominal wall exposed by opening the skin. Four milliliters of sterile physiological saline was then installed into the peritoneal cavity via an 18-gauge needle. The abdomen was massaged gently for 1 minute while keeping the tip of the needle in the peritoneum, after which procedure peritoneal fluid was recovered through the needle. Recovered peritoneal lavage fluid was placed on ice until processed for bacteriological examination. After serially diluting the peritoneal lavage fluid to determine CFU numbers (see below), the peritoneal lavage fluid was centrifuged at 5000×g for ten minutes and the supernatant stored at −70° C. until further analysis. Samples from spleen, thymus, lung, kidneys, and liver were excised and either immediately frozen in liquid nitrogen or placed in 10% paraformaldehyde for subsequent histological analysis. Snap-frozen tissue samples were transferred to a −70° C. refrigerator until analyzed for gene expression and apoptotic markers. Concentrations of IL-10, IL-6, IL-12 p70, TNF-α and MIP-2, in plasma or peritoneal lavage fluid were determined using commercially available ELISA kits (R&D Systems) and according to the manufacturer's instructions. The lower detection limit for all these cytokines was 10 pg/ml. Plasma concentrations of AST, ALT, and BUN were analyzed using standard laboratory procedures. Survival curves were analyzed using the two-tailed Fisher's exact test. Two-tailed t testing was used to compare cytokine concentrations, CFUs, and other laboratory parameters. Statistical significance was assigned to p values smaller than 0.05.

The test system of another assay is mice subjected to CLP. Kind of assay: Survival after cecal ligation and puncture (CLP)-induced sepsis. Type of assay: in vivo, mouse. Particulars: CD-1 mice. The text has this: For pharmacological studies with the selective A2A receptor antagonist 4-(2-[7-amino-2-(2-furyl)[1,2,4]triazolo[2,3-a][1,3,5]triazin-5-ylamino]ethyl)phenol(4-(2-[7-amino-2-(2-furyl[1,2,4]-triazolo[2,3-a[1,3,5]triazin-5-yl-aminoethyl)phenol (“ZM241385”); Tocris Cookson Inc.), male CD-1 mice were used that were purchased from Charles River Laboratories.
Polymicrobial sepsis was induced by subjecting mice to CLP, as we have described previously, with some modifications. Six-to-eight-week-old male A2a receptor KO or WT mice were anesthetized with Nembutal (80 mg/kg), given i.p. Under aseptic conditions, a 2-cm midline laparotomy was performed to allow exposure of the cecum with adjoining intestine. Approximately two-thirds of the cecum was tightly ligated with a 3.0 silk suture, and the ligated part of the cecum perforated twice (through and through) with a 20-gauge needle (Beckton Dickinson). The cecum was then gently squeezed to extrude a small amount of feces from the perforation sites. The cecum was then returned to the peritoneal cavity and the laparotomy closed in two layers with 4.0 silk sutures. Sham-operated animals underwent the same procedure without ligation or puncture of the cecum. The mice were resuscitated with 1 ml of physiological saline injected s.c., and returned to their cages with free access to food and water. One group of mice was monitored daily and survival recorded for 10 days. Another group of mice was re-anesthetized with Nembutal (80 mg/kg; i.p.) 16 or 48 hours after the operation, and blood, peritoneal lavage fluid, and various organs were harvested as described below.
The effect of pharmacological inactivation of A2A receptors in mice subjected to CLP was evaluated using CD-1 mice in a similar fashion to that described for the A2A receptor KO or WT mice. […]
Survival curves were analyzed using the two-tailed Fisher's exact test. […]

Setting [2] is: 15 mg/kg s.c. twice daily, 16 hours after CLP, FIG. 6C.
[3] abbreviates: 15 mg/kg s.c. twice daily, 16 hours after CLP, FIG. 6D.
[4] abbreviates: 15 mg/kg s.c. twice daily, 16 hours after CLP, FIG. 6E.
Setting [5] is: mouse CLP sepsis model, FIG. 10, matrix not stated.

With `Nc1nc(NCCc2ccc(O)cc2)nc2nc(-c3ccco3)nn12` [ZM241385], in assay [1] (setting [2]), the “IL-10 level in peritoneal lavage fluid vs vehicle-treated mice” value is recorded as “decreased” and the “IL-10 level in plasma vs vehicle-treated mice” value is “decreased”. Also, in assay [1] (setting [3]), the “IL-6 concentration in plasma vs vehicle-treated mice” value is recorded as “comparable” and the “IL-6 level in peritoneal fluid vs vehicle-treated mice” value is listed as “lower; also recorded: attenuated”. For the same compound, in assay [1] (setting [4]), the “MIP-2 level in peritoneal lavage fluid vs vehicle-treated mice” value was “decreased” and the “MIP-2 level in plasma vs vehicle-treated mice” value is on record as “decreased”. In assay [1] (setting [5]), the “IL-10 levels vs vehicle treated mice” value is listed as “Decreased levels”, the “IL-12 concentrations vs vehicle treated mice” value is “comparable” and the “MIP-2 levels vs vehicle treated mice” value is “Decreased levels”. For the same compound, the “survival after CLP vs vehicle-treated mice, delayed administration” value with mice subjected to CLP (15 mg/kg s.c. twice daily starting 2 hours after resuscitation, survival monitored 5 days, FIG. 6B, 15 mg/kg) was “still protective; also recorded: protects mice from death”. The “survival after CLP vs vehicle-treated mice” value with mice subjected to CLP (15 mg/kg s.c. twice daily starting at time of resuscitation (time 0), survival monitored 5 days, FIG. 6A, 15 mg/kg) is reported as “significantly improved survival; also recorded: protects mice from death”. For the same compound, the “survival after CLP” value with mice subjected to CLP (survival recorded for 2 days, FIG. 9) was “improved survival”.
